The text below walks through data of paper PMC10976393 (2024).

In assay [1] the test system is ATP Aptamer (DNA, aptamer) CCTGGGGGAGTATTGCGGAGGAAGG
Put plainly: HPLC-ESI-MS. Conditions: 1 mM KCl, 100 mM TEAAc (annealed in 50 mM KCl).

Assay [2] has as its system GAT (DNA, single strand) GATAGCGTCACTCGATCT
Put plainly: label-free ThT fluorescence. The following applies: 100 mM KCl; 50 mM Tris pH 7.5; ThT present; slow annealing with ATP.

In assay [3] the test system is ATP Aptamer (DNA, aptamer) CCTGGGGGAGTATTGCGGAGGAAGG
Put plainly: label-free ThT fluorescence increase, single-site fit. Conditions: 100 mM KCl; 50 mM Tris pH 7.5; ThT 0.5 μM present; slow annealing with ATP; apparent.

Assay [4] relates to Triplet G (DNA, aptamer) CCTGGGGGGGAGTATTGCGGGAGGGAAGG
Put plainly: HPLC-ESI-MS. The following applies: 1 mM KCl, 100 mM TEAAc (annealed in 50 mM KCl).

Assay [5] deals with FAM-ATP Aptamer (DNA, aptamer) TTCCTGGGGGAGTATTGCGGAGGAAGG
The assay can be described thus: FAM fluorescence increase, single-site fit. Conditions: 100 mM KCl; 50 mM Tris pH 7.5; slow annealing with ATP 0-10 μM; 0.50 μM aptamer.

Assay [6] deals with Quadruplet G (DNA, aptamer) CCTGGGGGGGGGAGTATTGCGGGGAGGGGAAGG
Put plainly: HPLC-ESI-MS. The following applies: 1 mM KCl, 100 mM TEAAc (annealed in 50 mM KCl).

Assay [7] concerns Triplet G (DNA, aptamer) CCTGGGGGGGAGTATTGCGGGAGGGAAGG
Put plainly: label-free ThT fluorescence increase, single-site fit. Conditions: 100 mM KCl; 50 mM Tris pH 7.5; ThT 0.5 μM present; slow annealing with ATP; apparent.

In assay [8] the test system is ATP Aptamer-FAM (DNA, aptamer) TTCCTGGGGGAGTATTGCGGAGGAAGG
The assay can be described thus: FAM fluorescence increase, single-site fit. Conditions: 100 mM KCl; 50 mM Tris pH 7.5; slow annealing with ATP 0-10 μM; 0.50 μM aptamer.

Assay [9] has as its system Quadruplet G (DNA, aptamer) CCTGGGGGGGGGAGTATTGCGGGGAGGGGAAGG
The assay can be described thus: label-free ThT fluorescence increase, single-site fit. The following applies: 100 mM KCl; 50 mM Tris pH 7.5; ThT 0.5 μM present; slow annealing with ATP; apparent.

Assay [10] relates to FAM-Quadruplet G (DNA, aptamer) TTCCTGGGGGGGGGAGTATTGCGGGGAGGGGAAGG
Put plainly: FAM fluorescence increase, single-site fit. The following applies: 100 mM KCl; 50 mM Tris pH 7.5; slow annealing with ATP 0-10 μM; 0.50 μM aptamer.

Assay [11] relates to FAM-Triplet G (DNA, aptamer) TTCCTGGGGGGGAGTATTGCGGGAGGGAAGG
The assay can be described thus: FAM fluorescence increase, single-site fit. The following applies: 100 mM KCl; 50 mM Tris pH 7.5; slow annealing with ATP 0-10 μM; 0.50 μM aptamer.

In assay [12] the test system is Scrambled Aptamer (DNA, single strand) GTGCGCGAGTGTGAGCGAGAGTGAG
Put plainly: label-free ThT fluorescence. Conditions: 100 mM KCl; 50 mM Tris pH 7.5; ThT present; slow annealing with ATP.

Assay [13] concerns Quadruplet G (DNA, aptamer) CCTGGGGGGGGGAGTATTGCGGGGAGGGGAAGG
Put plainly: ThT fluorescence light-up. Conditions: 100 mM KCl; 50 mM Tris pH 7.5; 3- to 4-fold increase over non-G4 controls.

The subject of assay [14] is ATP Aptamer (DNA, aptamer) CCTGGGGGAGTATTGCGGAGGAAGG
Put plainly: ThT fluorescence light-up. The following applies: 100 mM KCl; 50 mM Tris pH 7.5; 3- to 4-fold increase over non-G4 controls.

Assay [15] relates to Triplet G (DNA, aptamer) CCTGGGGGGGAGTATTGCGGGAGGGAAGG
Put plainly: ThT fluorescence light-up. The following applies: 100 mM KCl; 50 mM Tris pH 7.5; 3- to 4-fold increase over non-G4 controls.

[16] abbreviates: 1 mM Tris, G4:ATP 1:5 mixed, also with ThT.
The mark [17] stands for this setting: G4:ATP:ThT 1:5:5 mixed, ternary complex with ATP.

On to `Nc1ncnc2c1ncn2[C@@H]1O[C@H](COP(=O)(O)OP(=O)(O)OP(=O)(O)O)[C@@H](O)[C@H]1O`, for which the binding entry was “yes” in assay [1] (setting [16]); “no” in assay [2]; “yes” in assay [4] (setting [16]); “yes” in [6] (setting [16]); “no” in assay [12]. The Kd in assay [3] turned out to be 830 nM; in [5], 150 nM; in [7] it was 71 nM; in assay [8], 620 nM; in assay [9] it was 170 nM; in assay [10] it was 42 nM. In assay [11], this compound displayed a Kd of 40 nM.
For the compound `Cc1ccc2c(c1)sc(-c1ccc(N(C)C)cc1)[n+]2C`, the binding entry in [1] (setting [17]), in assay [13], in [4] (setting [17]), in [6] (setting [17]), in [14] and in [15] was “yes” throughout.
